Assay results from the NIST ThermoML archive (doi:10.1016/j.jct.2010.03.022).

Conditions: for viscosity: 101.3 kPa; for viscosity / mass density: Liquid; for surface tension liquid-gas: Ring tensiometer

CCO [ethanol]
Conditions | surface tension liquid-gas [mN/m] | viscosity [mPa·s]
273.15 K | – | 1.832
274.77 K | 23.59 | –
274.87 K | 23.54 | –
278.6 K | – | 1.649
280.56 K | 23.15 | 1.537
281.05 K | 22.95 | –
281.17 K | 23.09 | 1.527
284.25 K | 22.78 | 1.455
288.21 K | 22.7 | 1.338
288.23 K | 22.61 | –
288.65 K | 22.63 | –
293.15 K | 22.36 | 1.203
294.19 K | 22.4 | 1.192
298.15 K | 22.25 | 1.096
298.41 K | 22.07 | 1.088
298.55 K | 22.06 | 1.088
303.15 K | 21.63 | 1.002
303.2 K | 21.66 | 1
308.23 K | 21.33 | 0.914
311.79 K | 21.09 | 0.855
318.99 K | 20.2 | 0.756
321.15 K | – | 0.73
323.15 K | – | 0.715
328.15 K | – | 0.656
333.15 K | – | 0.602
338.16 K | – | 0.571
343.15 K | – | 0.504
346.15 K | – | 0.488

Conditions | mass density [kg/m3]
278.15 K, 100 kPa | 803.3
278.15 K, 2000 kPa | 805.9
278.15 K, 4000 kPa | 807.3
278.15 K, 6000 kPa | 809.2
278.15 K, 8000 kPa | 810.6
278.15 K, 10000 kPa | 812.7
278.15 K, 15000 kPa | 815.8
278.15 K, 20000 kPa | 821
278.15 K, 25000 kPa | 823.4
278.15 K, 30000 kPa | 823.8
278.15 K, 35000 kPa | 825.8
283.15 K, 100 kPa | 799.5
283.15 K, 2000 kPa | 801.7
283.15 K, 4000 kPa | 803
283.15 K, 6000 kPa | 805.1
283.15 K, 8000 kPa | 806.6
283.15 K, 10000 kPa | 808.5
283.15 K, 15000 kPa | 811.8
283.15 K, 20000 kPa | 816.4
283.15 K, 25000 kPa | 818.9
283.15 K, 30000 kPa | 819.9
283.15 K, 35000 kPa | 822.2
288.15 K, 100 kPa | 795.3
288.15 K, 2000 kPa | 797.5
288.15 K, 4000 kPa | 798.8
288.15 K, 6000 kPa | 800.9
288.15 K, 8000 kPa | 802.6
288.15 K, 10000 kPa | 804.2
288.15 K, 15000 kPa | 807.8
288.15 K, 20000 kPa | 811.9
288.15 K, 25000 kPa | 814.5
288.15 K, 30000 kPa | 816
288.15 K, 35000 kPa | 818.6
293.15 K, 100 kPa | 791.2
293.15 K, 2000 kPa | 793.2
293.15 K, 4000 kPa | 794.5
293.15 K, 6000 kPa | 796.7
293.15 K, 8000 kPa | 798.5
293.15 K, 10000 kPa | 800
293.15 K, 15000 kPa | 803.7
293.15 K, 20000 kPa | 807.4
293.15 K, 25000 kPa | 810.2
293.15 K, 30000 kPa | 812.2
293.15 K, 35000 kPa | 814.9
298.15 K, 100 kPa | 785
298.15 K, 2000 kPa | 788.8
298.15 K, 4000 kPa | 790.3
298.15 K, 6000 kPa | 792.5
298.15 K, 8000 kPa | 794.3
298.15 K, 10000 kPa | 795.8
298.15 K, 15000 kPa | 799.7
298.15 K, 20000 kPa | 803.1
298.15 K, 25000 kPa | 806
298.15 K, 30000 kPa | 808.3
298.15 K, 35000 kPa | 811.3
303.15 K, 100 kPa | 781.6
303.15 K, 2000 kPa | 784.4
303.15 K, 4000 kPa | 785.9
303.15 K, 6000 kPa | 788.2
303.15 K, 8000 kPa | 790.2
303.15 K, 10000 kPa | 791.6
303.15 K, 15000 kPa | 795.6
303.15 K, 20000 kPa | 798.8
303.15 K, 25000 kPa | 801.8
303.15 K, 30000 kPa | 804.5
303.15 K, 35000 kPa | 807.6
308.15 K, 100 kPa | 777.9
308.15 K, 2000 kPa | 780
308.15 K, 4000 kPa | 781.6
308.15 K, 6000 kPa | 783.9
308.15 K, 8000 kPa | 785.9
308.15 K, 10000 kPa | 787.3
308.15 K, 15000 kPa | 791.5
308.15 K, 20000 kPa | 794.7
308.15 K, 25000 kPa | 797.8
308.15 K, 30000 kPa | 800.7
308.15 K, 35000 kPa | 803.9
313.15 K, 100 kPa | 774
313.15 K, 2000 kPa | 775.4
313.15 K, 4000 kPa | 777.2
313.15 K, 6000 kPa | 779.5
313.15 K, 8000 kPa | 781.7
313.15 K, 10000 kPa | 783.1
313.15 K, 15000 kPa | 787.4
313.15 K, 20000 kPa | 790.6
313.15 K, 25000 kPa | 793.8
313.15 K, 30000 kPa | 797
313.15 K, 35000 kPa | 800.2
318.15 K, 100 kPa | 769.7
318.15 K, 2000 kPa | 770.8
318.15 K, 4000 kPa | 772.8
318.15 K, 6000 kPa | 775.1
318.15 K, 8000 kPa | 777.3
318.15 K, 10000 kPa | 778.8
318.15 K, 15000 kPa | 783.2
318.15 K, 20000 kPa | 786.5
318.15 K, 25000 kPa | 789.9
318.15 K, 30000 kPa | 793.2
318.15 K, 35000 kPa | 796.5
323.15 K, 100 kPa | 765.2
323.15 K, 2000 kPa | 766.2
323.15 K, 4000 kPa | 768.4
323.15 K, 6000 kPa | 770.7
323.15 K, 8000 kPa | 772.9
323.15 K, 10000 kPa | 774.5
323.15 K, 15000 kPa | 779
323.15 K, 20000 kPa | 782.6
323.15 K, 25000 kPa | 786.1
323.15 K, 30000 kPa | 789.5
323.15 K, 35000 kPa | 792.8
328.15 K, 100 kPa | 760.4
328.15 K, 2000 kPa | 761.5
328.15 K, 4000 kPa | 763.9
328.15 K, 6000 kPa | 766.2
328.15 K, 8000 kPa | 768.5
328.15 K, 10000 kPa | 770.3
328.15 K, 15000 kPa | 774.8
328.15 K, 20000 kPa | 778.7
328.15 K, 25000 kPa | 782.3
328.15 K, 30000 kPa | 785.7
328.15 K, 35000 kPa | 789
333.15 K, 100 kPa | 755.4
333.15 K, 2000 kPa | 756.7
333.15 K, 4000 kPa | 759.4
333.15 K, 6000 kPa | 761.6
333.15 K, 8000 kPa | 764
333.15 K, 10000 kPa | 766
333.15 K, 15000 kPa | 770.6
333.15 K, 20000 kPa | 774.9
333.15 K, 25000 kPa | 778.6
333.15 K, 30000 kPa | 782
333.15 K, 35000 kPa | 785.2
338.15 K, 100 kPa | 750
338.15 K, 2000 kPa | 751.8
338.15 K, 4000 kPa | 754.9
338.15 K, 6000 kPa | 757
338.15 K, 8000 kPa | 759.5
338.15 K, 10000 kPa | 761.7
338.15 K, 15000 kPa | 766.3
338.15 K, 20000 kPa | 771.2
338.15 K, 25000 kPa | 775
338.15 K, 30000 kPa | 778.3
338.15 K, 35000 kPa | 781.4
343.15 K, 100 kPa | 744.3
343.15 K, 2000 kPa | 746.8
343.15 K, 4000 kPa | 750.3
343.15 K, 6000 kPa | 752.3
343.15 K, 8000 kPa | 754.9
343.15 K, 10000 kPa | 757.3
343.15 K, 15000 kPa | 762
343.15 K, 20000 kPa | 767.6
343.15 K, 25000 kPa | 771.5
343.15 K, 30000 kPa | 774.6
343.15 K, 35000 kPa | 777.6
348.15 K, 100 kPa | 738.4
348.15 K, 2000 kPa | 741.8
348.15 K, 4000 kPa | 745.6
348.15 K, 6000 kPa | 747.6
348.15 K, 8000 kPa | 750.2
348.15 K, 10000 kPa | 753
348.15 K, 15000 kPa | 757.7
348.15 K, 20000 kPa | 764
348.15 K, 25000 kPa | 768
348.15 K, 30000 kPa | 770.9
348.15 K, 35000 kPa | 773.7
353.15 K, 2000 kPa | 736.7
353.15 K, 4000 kPa | 741
353.15 K, 6000 kPa | 742.8
353.15 K, 8000 kPa | 745.5
353.15 K, 10000 kPa | 748.6
353.15 K, 15000 kPa | 753.3
353.15 K, 20000 kPa | 760.5
353.15 K, 25000 kPa | 764.6
353.15 K, 30000 kPa | 767.2
353.15 K, 35000 kPa | 769.9
